Experimental data taken from PubChem BioAssay AID652005 (Sanford-Burnham Center for Chemical Genomics, 2013).
Activity calls are given as the source filed them. No rule for the calls is given here.

Target: Low molecular weight phosphotyrosine protein phosphatase (Homo sapiens) (UniProt P24666)
Experiment: LMPTP phosphatase inhibitors, dose response, orthogonal assay, biochemical, absorbance (AID 652005)
Details: recombinant LMPTP, absorbance-based phosphatase activity

Sequence of Low molecular weight phosphotyrosine protein phosphatase (Homo sapiens) (P24666 whole entry, looked up): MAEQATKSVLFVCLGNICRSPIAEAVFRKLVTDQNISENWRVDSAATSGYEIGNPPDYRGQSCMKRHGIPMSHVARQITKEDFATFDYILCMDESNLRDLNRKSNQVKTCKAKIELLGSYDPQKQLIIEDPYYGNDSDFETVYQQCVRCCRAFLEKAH

**Q.** How did the IC50 turn out when `CCc1ccc(C=C2SC(=S)N(CCCC(=O)Nc3ccc(C(=O)O)cc3)C2=O)cc1` was run?
**A.** > 80 µM (inactive)

**Q.** For `CC(C1SC(=S)NC1=O)C1SC(=S)NC1=O` (stereo not drawn), which IC50 is on record?
**A.** > 80 µM (inactive)

**Q.** How did the IC50 turn out when `CCN(c1ccccc1)S(=O)(=O)c1cc(C(=O)O)ccc1C` was run?
**A.** inactive

**Q.** For `O=c1[nH]c2ccccc2n1C1CCN(Cc2ccc(-c3[nH]c4cc5ncnc5cc4nc3-c3ccccc3)cc2)CC1`, which IC50 is on record?
**A.** > 80 µM (inactive)

**Q.** `O=C(/C=C/c1ccc(Cl)cc1)NC(=S)Nc1ccc(C(=O)O)cc1` was tested. Which IC50 did it give?
**A.** 15 µM

**Q.** How did the IC50 turn out when `O=C(N=Nc1c(O)[nH]c2ccc(F)cc12)c1ccc(NS(=O)(=O)c2cccs2)cc1` was run?
**A.** > 80 µM (inactive)

**Q.** `O=C(NCc1ccc2c(c1)OCO2)c1c(O)nc2sccn2c1=O` was tested. Which IC50 did it give?
**A.** > 80 µM (inactive)

**Q.** With `Cc1csc2nc(O)c(C(=O)NCc3ccc4c(c3)OCO4)c(=O)n12` as the molecule, how does the IC50 read?
**A.** > 80 µM (inactive)
